# In ChEMBL document CHEMBL3507680, “University of Dundee, Gates Library screen for HepG2 cell viability”:
# Assay: Human HepG2 cell viability assay in 384 well format
# Assay type: toxicity, cell-based
# Design: dose 125 nL, time 70.5 hour; concentration not given beside the values
# Settings: HepG2 cells, read-out: Inhibition
row,SMILES,cytotoxicity at 70.5 h [%]
1,CC(=O)N1Cc2nccn2CC(CNC(=O)c2cnccn2)C1 (configuration not stated),-13.1
2,CN1CC[C@H]2[C@H](C[C@@H](Cn3cncn3)N2c2nccs2)C1,-8.05
3,Cc1cccc(CN2CC3C[C@]3(NC(=O)c3ccoc3)C2)n1 (some centres not stated),-12.4
4,CN1CCN(c2ncnc3c2CCN(Cc2nccn2C)CC3)CC1,6.69
5,c1coc(CN2CC[C@@H]3O[C@@H](COCC4CCOCC4)CC[C@@H]32)c1,-0.874
6,Cc1ccc(C(=O)N2CCC3(CCN(Cc4ccccn4)C3=O)C2)cn1 (configuration not stated),-5.23
7,O=C(COC[C@@H]1CC[C@H]2[C@H](CCN2Cc2ccco2)O1)N1CCCC1,24.3
8,CCN(CC)CC1CN(Cc2ccco2)Cc2nccn2C1 (configuration not stated),-4.92
9,Cn1ccc(C(=O)NC2CCC23CCN(Cc2nccs2)CC3)c1 (configuration not stated),-4.21
10,COCCn1c2c(ccc1=O)CCN(Cc1ccoc1)CC2,-3.82
11,Cc1cccc(CN2CCc3ncnc(Oc4cccnc4)c3CC2)n1,27.9
12,COc1nn(C)c2c1CCCN(C(=O)c1ccccc1F)C2,-95.9
13,COCCO[C@H]1CCN(C(=O)c2ccco2)[C@H]1Cc1cnn(C)c1,-90.2
14,OCc1nnn2c1CN(Cc1cccnc1)CCC2,-115
15,CCc1ccc(NC(=O)N2C[C@H]3CC[C@@]4(N=C(C)N(C)C4=O)[C@H]3C2)cc1,44.3
16,CS(=O)(=O)N1C[C@@H]2COC[C@H](C(=O)Nc3cnccn3)[C@@H]2C1,59.3
17,C[C@H]1C[C@@H]2CCN(C(=O)c3cnccn3)C[C@H]2O1,-8.48
18,C[C@H]1C[C@@H]2CCN(C(=O)c3ccccn3)C[C@H]2O1,-2.22
19,C[C@@H]1C[C@H]2CN(C(=O)c3ccncn3)C[C@H]2O1,-14.1
20,CC(C)C(=O)N1CCN(C(=O)N(C)C)CC2(CC(=O)N(C)C2)C1 (configuration not stated),37.2
21,Cc1ccc(CNC(=O)c2nn(C)c3c2CS(=O)(=O)CC3)o1,-2.5
22,Cn1nc(C(=O)NCc2cccs2)c2c1CCS(=O)(=O)C2,-6.12

row,SMILES,cytotoxicity at 70.5 h [%]
1,COc1ccccc1C(=O)Nc1c(F)c(C(=O)N2CCCC2)nn1C,-0.747
2,Cn1nc(C(=O)N2CCCC2)c(F)c1NC(=O)Cc1ccccc1,28.2
3,CC(C)CNC(=O)c1nn(C)c(NC(=O)Cc2ccccc2)c1F,-9.39
4,O=C(CSc1ccccn1)NCc1ccc2c(c1)CCC(=O)N2,40.7
5,CCOCCNS(=O)(=O)c1cc(C)c2nc(O)cc(C)c2c1,21
6,Cc1nnc(SCC(=O)NCc2ccc3c(c2)CCC(=O)N3)n1C,-3
7,COc1cccc(OCCNS(=O)(=O)Cc2ccccc2)c1,19.4
8,Cc1cccc(N(C)Cc2cc(=O)n3oc(C)cc3n2)c1,3.47
9,Cc1cc2nc(CN(C)c3ccc(Cl)cc3)cc(=O)n2o1,22
10,O=C1CNc2ncnc(N3CCN(Cc4ccccc4F)CC3)c2N1,-7.69
11,Cc1nn(CCNc2ncnc3c2NC(=O)CN3)c(C)c1Cl,-8.12
12,Cc1cc(C)n(CCNc2ncnc3c2NC(=O)CN3)n1,-15.7
13,O=C1CNc2ncnc(Nc3cnn(Cc4ccccc4F)c3)c2N1,27.9
14,COc1ccc(C(C)Nc2ncnc3c2NC(=O)CN3)cc1 (configuration not stated),-14.1
15,COc1cccc(C(C)Nc2ncnc3c2NC(=O)CN3)c1 (configuration not stated),11
16,Cc1ccccc1CN1CCN(c2ncnc3c2NC(=O)CN3)CC1,-8.36
17,O=C1CNc2ncnc(NCc3cccs3)c2N1,-5.96
18,O=C1CNc2ncnc(N3CCN(Cc4ccccc4)CC3)c2N1,12.6
19,COc1ccc(CNc2ncnc3c2NC(=O)CN3)cc1,-6.06
20,CCCc1noc(C2CCN(S(=O)(=O)c3cccs3)CC2)n1,-2.96
21,CC(C)c1noc(C2CCN(C(=O)c3cccs3)CC2)n1,-5.14
22,CCS(=O)(=O)N1CCCCC1c1nc(C)no1 (configuration not stated),-5.51

row,SMILES,cytotoxicity at 70.5 h [%]
1,CC(=O)NCc1nnc2n1CCN(Cc1cccs1)C2,-11.7
2,CCS(=O)(=O)N1CCCC2(CCCN2Cc2cccc(Cl)c2)C1 (configuration not stated),-4.53
3,CNC(=O)CN1CCO[C@H]2CN(C(=O)c3ccncc3F)C[C@H]21,-3.77
4,O=S(=O)(C1CC1)N1CCO[C@@H]2CN(Cc3cccs3)C[C@@H]2C1,-5.47
5,CC(C)N1CCO[C@H]2CN(C(=O)c3ccncc3F)C[C@H]21,-4.09
6,O=S(=O)(c1ccccc1)N1CCC2(CCCN2Cc2cccc(Cl)c2)C1 (configuration not stated),-11.2
7,CCCS(=O)(=O)N1C[C@@H]2CN(Cc3cccs3)CCO[C@@H]2C1,-14.7
8,O=S(=O)(C1CC1)N1C[C@@H]2CN(Cc3ccoc3)CCO[C@@H]2C1,-15.4
9,Cc1cc(C(=O)N2C[C@@H]3COC[C@]3(CN(C)C)C2)c(C)o1,-17.3
10,Cc1cc(F)ccc1C(=O)N1C[C@@H]2COC[C@]2(CN(C)C)C1,-14.9
11,CCOCC1c2c(cnn2CC2CC2)CCN1C(=O)c1ccncn1 (configuration not stated),20.9
12,Cn1ncc2c1C(COCC1CC1)N(C(=O)c1ccncn1)CC2 (configuration not stated),5.78
13,O=C1C[C@@H]2[C@H](CCN2Cc2ccco2)N1c1ccsc1,9.07
14,O=S(=O)(c1ccccc1)N1C[C@@H]2COC[C@]2(CN2CCOCC2)C1,13.1
15,CN(C)S(=O)(=O)N1C[C@H]2CCC[C@@]2(COCc2ccccn2)C1,13.2
16,Cc1ccc(CN2CC[C@H]3[C@H]2CC(=O)N3c2ccsc2)o1,5.86
17,c1coc(CN2CC[C@H]3O[C@@H](COCC4CC4)CC[C@H]32)c1,7.95
18,CCO[C@H]1CO[C@@]2(CCCN(Cc3scnc3C)C2)C1,14.7
19,Cn1c2c(ccc1=O)CCN(Cc1ccoc1)CC2,4.43
20,CN(C)C(=O)COC[C@H]1CC[C@@H]2[C@@H](CCN2Cc2ccco2)O1,7.59
21,Fc1ccc(CN2CCc3ncnc(C4CC4)c3CC2)cc1,1.98
22,c1ccc(CN2Cc3nccn3CC(Cn3cncn3)C2)nc1 (configuration not stated),2.19

row,SMILES,cytotoxicity at 70.5 h [%]
1,O=C(c1ccsc1)N1CCC2(CCN(Cc3ccccn3)C2=O)C1 (configuration not stated),2.48
2,Cc1cc(CN2CCC3(CC2)CC(Nc2ncccn2)CO3)nn1C (configuration not stated),-35.4
3,CC(C)CS(=O)(=O)N1CCC2(CN(c3ccsc3)C(=O)CN2C)C1 (configuration not stated),-111
4,CO[C@@H]1CC[C@H]2[C@H]1OCCN2CC1CC1,-83.7
5,Cc1nc(-c2cc(C(=O)NCCN3CCOCC3)c3ccccn23)cs1,-131
6,Cc1nc(CN2CCOCC3(CCN(c4cnccn4)CC3)C2)cs1,-82.2
7,c1ccc(CN2CCCn3nnc(CNc4ncccn4)c3C2)nc1,-87.8
8,COCCO[C@H]1CCN(C(=O)c2cccnc2)[C@H]1Cc1cnn(C)c1,-96.2
9,CN1CC(=O)N(c2ccsc2)CC12CCN(S(=O)(=O)C1CC1)C2 (configuration not stated),-96.5
10,c1cnc(NCc2nnn3c2CN(Cc2cccs2)CCC3)nc1,-115
11,CC(C)(CO)CNC(=O)c1cc(-c2cc[nH]n2)n2ccccc12,-97.3
12,C1CC(CO[C@@H]2CC[C@H]3[C@H]2OCCN3CC2CC2)CCO1,-82.4
13,C1CCC(CO[C@@H]2CC[C@H]3[C@H]2OCCN3CC2CCOCC2)C1,-84.4
14,CCO[C@@H]1CC[C@H]2[C@H]1OCCN2CC1CCC1,-104
15,COc1nn(C)c2c1CCCN(C(=O)c1ccc3ccccc3n1)C2,8.68
16,O=C(c1cnccn1)N1C[C@@H](OCc2ccncc2)[C@@H]2OCCC[C@@H]21,-8.9
17,O=C1COC2(CCN(Cc3ccco3)CC2)CN1,-7.36
18,CCOCC1CN(Cc2ccc(OC)cc2)Cc2nn(CC3CC3)cc21 (configuration not stated),-5.83
19,O=C(C1CCC1)N1C[C@@H]2CCN(c3cccnc3)C[C@@H]2C1,30
20,Cn1ccnc1CN1C[C@@H]2[C@@H](C1)OCC(=O)N2CC1CCCC1,-21.4
21,c1csc(NCc2n[nH]c3c2CCN(CC2CC2)C3)n1,-14.2
22,O=C(CC1CCCC1)N1C[C@H](OCc2ccncc2)[C@H]2OCCC[C@H]21,-27.1

row,SMILES,cytotoxicity at 70.5 h [%]
1,CN(C)C(=O)CC1CC2(CCN(Cc3ccco3)CC2)c2ccccc21 (configuration not stated),-27.6
2,O=C1COC2(CCN(CC3CC3)CC2)CN1c1cncnc1,-13.3
3,CNC(=O)CN1CCc2c(CNc3nccs3)n[nH]c2C1,-10.9
4,Cn1cnc(S(=O)(=O)N2CCN(CC3CC3)c3ncccc3C2)c1,-6.52
5,CC(C)CN1CCN(S(=O)(=O)c2cn(C)cn2)Cc2cccnc21,-10.6
6,Cc1csc(CN2CCC[C@]3(C[C@@H](Oc4ccccn4)CO3)C2)n1,1.82
7,O=C(NC[C@H]1OC[C@@H]2CN(Cc3ccco3)CC[C@@H]21)c1cccnc1,6.02
8,Cc1cccc(CN2CCc3ncnc(N4CCN(C)CC4)c3CC2)n1,-0.603
9,c1cc(CN2Cc3nccn3CC(Cn3cncn3)C2)ccn1 (configuration not stated),3.67
10,O=C1CO[C@@H]2CN(CC3CCOCC3)C[C@H]2N1Cc1ccncc1,-2.17
11,O=C(Nc1cccnc1)[C@@H]1COC[C@H]2CN(C3CCCC3)C[C@H]21,-124
12,c1cncc(OC[C@@]23CCO[C@@H]2CCN(Cc2cccs2)C3)c1,-100
13,Cn1cc(C(=O)NCc2cn3c(n2)CN(CC2CCOC2)CC3)cn1 (configuration not stated),-110
14,CNC(=O)CN1CCCC12CCN(Cc1c[nH]cn1)CC2,-24.2
15,CCOCC1CN(Cc2ccccn2)Cc2nn(CC3CC3)cc21 (configuration not stated),-4.99
16,COCC1c2c(cnn2C)CCN1Cc1ccc(C)cc1 (configuration not stated),42.3
17,COCC1c2c(cnn2C)CCN1Cc1cccc(C)c1 (configuration not stated),-1.18
18,CC(C)N1[C@H](CN2CCCC2)C[C@@H]2CN(Cc3ccoc3)CC[C@@H]21,-10
19,c1cncc(CN2CC[C@@H]3O[C@H](COCCN4CCCC4)CC[C@@H]32)c1,5.3
